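In this assay, cells in 96-well plates receive the compound at five concentrations for 48 hours. Endpoints are linearly interpolated between the surrounding concentrations. The concentration for full growth arrest is given as TGI.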
What was measured:
Assay in all cases: DTP human tumour cell line panel, 48 h
[1] = test system: 786-0 renal
[2] = test system: A498 renal
[3] = test system: A549 NSCLC
[4] = test system: ACHN renal
[5] = test system: BT-549 breast
[6] = test system: CAKI-1 renal
[7] = test system: CCRF-CEM leukemia
[8] = test system: COLO 205 colon
[9] = test system: DU-145 prostate
[10] = test system: EKVX NSCLC
[11] = test system: HCC-2998 colon
[12] = test system: HCT-116 colon
[13] = test system: HCT-15 colon
[14] = test system: HL-60(TB) leukemia
[15] = test system: HOP-62 NSCLC
[16] = test system: HOP-92 NSCLC
[17] = test system: HS 578T breast
[18] = test system: HT29 colon
[19] = test system: IGROV1 ovarian
[20] = test system: KM12 colon
[21] = test system: LOX IMVI melanoma
[22] = test system: M14 melanoma
[23] = test system: MALME-3M melanoma
[24] = test system: MCF7 breast
[25] = test system: MDA-MB-231 breast
[26] = test system: MDA-MB-435
[27] = test system: MDA-N
[28] = test system: NCI-H226 lung
[29] = test system: NCI-H23 lung
[30] = test system: NCI-H460 lung
[31] = test system: NCI-H522 lung
[32] = test system: NCI/ADR-RES ovarian
[33] = test system: OVCAR-3 ovarian
[34] = test system: OVCAR-4 ovarian
[35] = test system: OVCAR-5 ovarian
[36] = test system: OVCAR-8 ovarian
[37] = test system: PC-3 prostate
[38] = test system: RPMI-8226 leukemia
[39] = test system: RXF 393 renal
[40] = test system: SF-268 CNS
[41] = test system: SF-295 CNS
[42] = test system: SF-539 CNS
[43] = test system: SK-MEL-2 melanoma
[44] = test system: SK-MEL-28 melanoma
[45] = test system: SK-MEL-5 melanoma
[46] = test system: SK-OV-3 ovarian
[47] = test system: SNB-19 CNS
[48] = test system: SNB-75 CNS
[49] = test system: SR leukemia
[50] = test system: SW-620 colon
[51] = test system: T-47D breast
[52] = test system: TK-10 renal
[53] = test system: U251 CNS
[54] = test system: UACC-257 melanoma
[55] = test system: UACC-62 melanoma
[56] = test system: UO-31 renal

Compound `OCCc1ccsc1-c1sc(-c2cc(CCO)c(-c3sc(-c4cc(CCO)c(-c5sccc5CCO)s4)cc3CCO)s2)cc1CCO` has a TGI [1] of 2140 nM, a TGI [2] of 3650 nM and a TGI [3] of 2200 nM. For the same compound, the TGI [4] was 3000 nM, the TGI [5] was 2210 nM and the TGI [6] was 2950 nM. The TGI [7] was over 25400 nM, the TGI [8] was 5030 nM and the TGI [9] was 4530 nM. The TGI [10] was 2910 nM, the TGI [11] was 2950 nM and the TGI [12] was 2330 nM. For the same compound, the TGI [13] was 3520 nM, the TGI [14] was 3610 nM and the TGI [15] was 2760 nM. For the same compound, the TGI [16] was 2890 nM, the TGI [17] was 7310 nM and the TGI [18] was 3990 nM. The TGI [19] was 2600 nM, the TGI [20] was 1900 nM and the TGI [21] was 2470 nM. The TGI [22] was 3360 nM, the TGI [23] was 2360 nM and the TGI [24] was 1950 nM. For the same compound, the TGI [25] was 11900 nM, the TGI [26] was 3390 nM and the TGI [27] was 4290 nM. For the same compound, the TGI [28] was 3860 nM, the TGI [29] was 2870 nM and the TGI [30] was 2950 nM. For the same compound, the TGI [31] was 2360 nM, the TGI [32] was 4140 nM and the TGI [33] was 2720 nM. For the same compound, the TGI [34] was 2520 nM, the TGI [35] was 2850 nM and the TGI [36] was 3130 nM. It also gave a TGI [37] of 2670 nM, a TGI [38] of 2320 nM and a TGI [39] of 1210 nM. The TGI [40] was 2140 nM, the TGI [41] was 2700 nM and the TGI [42] was 2950 nM. For the same compound, the TGI [43] was 3350 nM, the TGI [44] was 3270 nM and the TGI [45] was 3010 nM. For the same compound, the TGI [46] was 3110 nM, the TGI [47] was 3010 nM and the TGI [48] was 2890 nM. For the same compound, the TGI [49] was 2590 nM, the TGI [50] was 3980 nM and the TGI [51] was 3560 nM. For the same compound, the TGI [52] was 3150 nM, the TGI [53] was 2600 nM and the TGI [54] was 2900 nM. The TGI [55] was 3410 nM and the TGI [56] was 2700 nM.
